Counter-ions that a name gives are not always drawn. Like-named read-outs stand apart in the source and are kept apart here.
How the values were obtained:
5HT1A receptor = biological target: T1, 5HT1A receptor (Rattus norvegicus, UniProt P19327); assay: Inhibition of 3H-8-hydroxy-2-(di-n-propylamino)tetralin binding to 5HT1A receptor; design: species or system male Sprague-Dawley rats
T1 construct: membranes isolated from bovine choroid plexus (for 5HT1.sbsb.c) or rat brain; from tissue
T1 sequence (P19327 1-422): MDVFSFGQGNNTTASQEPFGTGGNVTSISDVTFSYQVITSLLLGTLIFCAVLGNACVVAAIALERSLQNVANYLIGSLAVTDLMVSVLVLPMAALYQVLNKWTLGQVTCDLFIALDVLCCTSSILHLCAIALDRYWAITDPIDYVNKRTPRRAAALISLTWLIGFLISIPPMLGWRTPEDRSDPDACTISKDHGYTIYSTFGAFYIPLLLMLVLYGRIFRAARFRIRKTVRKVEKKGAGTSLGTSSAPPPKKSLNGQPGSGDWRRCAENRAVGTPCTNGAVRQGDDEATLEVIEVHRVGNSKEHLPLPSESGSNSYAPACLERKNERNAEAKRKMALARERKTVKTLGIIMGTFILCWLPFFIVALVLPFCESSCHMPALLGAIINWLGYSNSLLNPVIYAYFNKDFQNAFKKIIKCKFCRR
Method: (§1) Radioactivity was measured with a liquid scintillation spectrometer.

5HT1B receptor = biological target: T2, 5HT1B receptor (Rattus norvegicus, UniProt P28564); assay: Inhibition of 3H-serotonin binding to 5HT1B receptor; design: species or system male Sprague-Dawley rats
T2 construct: membranes isolated from bovine choroid plexus (for 5HT1.sbsb.c) or rat brain; from tissue
T2 sequence (P28564 whole entry): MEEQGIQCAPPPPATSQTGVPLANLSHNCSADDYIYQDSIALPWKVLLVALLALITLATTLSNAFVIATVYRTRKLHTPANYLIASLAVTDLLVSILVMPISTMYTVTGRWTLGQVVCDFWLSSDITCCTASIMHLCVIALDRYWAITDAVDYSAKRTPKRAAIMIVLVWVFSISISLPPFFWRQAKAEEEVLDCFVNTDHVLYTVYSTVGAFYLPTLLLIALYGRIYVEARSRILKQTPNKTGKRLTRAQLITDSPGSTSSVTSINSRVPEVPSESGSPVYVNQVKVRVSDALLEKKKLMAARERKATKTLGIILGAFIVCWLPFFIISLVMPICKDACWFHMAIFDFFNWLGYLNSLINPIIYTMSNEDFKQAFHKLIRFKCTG
Method: as §1

5HT1C receptor = biological target: T3, 5HT1C receptor (Bos taurus, UniProt A0AAA9SBU1); assay: Inhibition of 3H-mesulergine binding to 5HT1C receptor
T3 sequence (A0AAA9SBU1 33-457): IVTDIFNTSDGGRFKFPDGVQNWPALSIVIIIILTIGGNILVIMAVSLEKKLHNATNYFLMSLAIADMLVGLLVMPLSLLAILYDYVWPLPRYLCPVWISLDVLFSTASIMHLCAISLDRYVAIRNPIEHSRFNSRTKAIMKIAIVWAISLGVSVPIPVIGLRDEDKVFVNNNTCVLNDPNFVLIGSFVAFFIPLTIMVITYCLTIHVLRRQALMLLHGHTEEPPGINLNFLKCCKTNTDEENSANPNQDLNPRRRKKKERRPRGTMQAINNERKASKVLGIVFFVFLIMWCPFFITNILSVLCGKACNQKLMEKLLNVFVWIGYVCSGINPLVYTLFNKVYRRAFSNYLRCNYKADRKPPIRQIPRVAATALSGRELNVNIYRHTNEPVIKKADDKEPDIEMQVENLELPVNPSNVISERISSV
Method: as §1

5HT1D receptor = assay: Inhibition of 3H-serotonin binding to 5HT1D receptor; design: species or system male Sprague-Dawley rats; conditions: rat brain membranes, 25 °C, 30 min, pH 7.4, read-out: Inhibition of Radioligand Binding to 5HT Receptor 1D (IC50)
Method: as §1

5HT2 receptor = 5HT2 receptor (Rattus norvegicus, UniProt P14842); assay: biochemical
Chain of 5HT2 receptor (P14842 whole entry): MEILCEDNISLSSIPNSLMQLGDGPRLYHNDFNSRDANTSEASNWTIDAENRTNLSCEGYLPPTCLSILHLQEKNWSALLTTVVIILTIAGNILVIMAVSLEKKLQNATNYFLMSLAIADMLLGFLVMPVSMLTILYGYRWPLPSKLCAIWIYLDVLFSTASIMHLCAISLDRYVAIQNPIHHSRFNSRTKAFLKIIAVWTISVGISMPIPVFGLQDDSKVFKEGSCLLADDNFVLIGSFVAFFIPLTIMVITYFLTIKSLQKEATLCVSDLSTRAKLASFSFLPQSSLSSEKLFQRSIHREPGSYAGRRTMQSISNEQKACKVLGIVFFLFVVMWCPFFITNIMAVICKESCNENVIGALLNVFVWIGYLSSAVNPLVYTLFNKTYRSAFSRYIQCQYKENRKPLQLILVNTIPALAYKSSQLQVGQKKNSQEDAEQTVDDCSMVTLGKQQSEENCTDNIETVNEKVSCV
Method: Binding was terminated by filtering samples under reduced pressure through glass fiber (GFB) filters. […] Radioactivity was measured with a liquid scintillation spectrometer.

| Compound | IC50 (5HT1A receptor) [nM] | IC50 (5HT1B receptor) [nM] | IC50 (5HT1C receptor; bovine choroid plexus membranes; 2 nM 3H-mesulergine; 25 °C, 30 min, pH 7.4; read-out: Inhibition of Radioligand Binding to 5HT Receptor 1C (IC50)) [nM] | IC50 (5HT1D receptor) [nM] | IC50 (5HT2 receptor) [nM] | IC50 (5HT1A receptor; rat brain membranes, 3H-8-hydroxy-2-(di-n-propylamino)tetralin, 25 °C, 30 min, pH 7.4, read-out: Inhibition of Radioligand Binding to 5HT Receptor 1A (IC50)) [nM] | IC50 (5HT1B receptor; rat brain membranes, 3H-serotonin, 25 °C, 30 min, pH 7.4, read-out: Inhibition of Radioligand Binding to 5HT Receptor 1B (IC50)) [nM] | IC50 (5HT1C receptor; read-out: Inhibition of Radioligand Binding to 5HT Receptor 1C (IC50); bovine choroid plexus membranes; 2 nM 3H-mesulergine; 25 °C, 30 min, pH 7.4) [nM] |
| --- | --- | --- | --- | --- | --- | --- | --- | --- |
| CC(C)n1cc2c3c(cccc31)[C@H]1C[C@@H](C(=O)N[C@H]3CC[C@H](NS(C)(=O)=O)CC3)CN(C)[C@@H]1C2 (relative stereo) [Example 2, (8β)-N-(trans-4-methylsulfonamidocyclohexyl)-1-isopropyl-6-methylergoline-8-carboxamide maleate] | 2650 | 489 | 22 | 276 | 23 | – | – | – |
| CC(=O)N[C@H]1CC[C@H](NC(=O)[C@@H]2C[C@@H]3c4cccc5c4c(cn5C(C)C)C[C@H]3N(C)C2)CC1 (relative stereo) [Example 1, (8β)-N-(trans-4-acetamidocyclohexyl)-1-isopropyl-6-methylergoline-8-carboxamide] | – | – | – | 198 | 31 | 2310 | > 1000 | 18 |
